Experimental data reported in article PMC3075257, “Evaluation of Multidrug Efflux Pump Inhibitors by a New Method Using Microfluidic Channels” (PLoS ONE, 2011).

Experiments:
Type in all cases: cell-based
AcrAB-TolC = target: T1, AcrAB-TolC (Escherichia coli, UniProt P31224); assay: FDG influx and hydrolysis in wild-type against ΔacrB cells, microfluidic channel fluorescence microscopy; settings: 100 µg/ml FDG, LB, lactose-induced β-galactosidase, 15 min, 37°C
T1 construct: gene acrB; native chromosomal pump in intact cells, judged against ΔacrB and ΔtolC deletion mutants; with Multidrug efflux pump subunit AcrA; Outer membrane protein TolC
T1 sequence (P0AE06 25-397): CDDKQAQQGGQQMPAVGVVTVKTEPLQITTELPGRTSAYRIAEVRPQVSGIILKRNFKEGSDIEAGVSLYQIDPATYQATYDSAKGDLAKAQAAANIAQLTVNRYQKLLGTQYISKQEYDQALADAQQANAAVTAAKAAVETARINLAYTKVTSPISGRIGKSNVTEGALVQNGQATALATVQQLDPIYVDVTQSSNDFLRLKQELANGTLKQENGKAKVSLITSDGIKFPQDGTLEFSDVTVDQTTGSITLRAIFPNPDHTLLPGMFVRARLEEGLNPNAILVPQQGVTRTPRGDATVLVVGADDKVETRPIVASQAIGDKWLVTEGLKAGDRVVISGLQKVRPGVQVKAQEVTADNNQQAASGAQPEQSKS
T1 sequence (P02930 23-493, further chain): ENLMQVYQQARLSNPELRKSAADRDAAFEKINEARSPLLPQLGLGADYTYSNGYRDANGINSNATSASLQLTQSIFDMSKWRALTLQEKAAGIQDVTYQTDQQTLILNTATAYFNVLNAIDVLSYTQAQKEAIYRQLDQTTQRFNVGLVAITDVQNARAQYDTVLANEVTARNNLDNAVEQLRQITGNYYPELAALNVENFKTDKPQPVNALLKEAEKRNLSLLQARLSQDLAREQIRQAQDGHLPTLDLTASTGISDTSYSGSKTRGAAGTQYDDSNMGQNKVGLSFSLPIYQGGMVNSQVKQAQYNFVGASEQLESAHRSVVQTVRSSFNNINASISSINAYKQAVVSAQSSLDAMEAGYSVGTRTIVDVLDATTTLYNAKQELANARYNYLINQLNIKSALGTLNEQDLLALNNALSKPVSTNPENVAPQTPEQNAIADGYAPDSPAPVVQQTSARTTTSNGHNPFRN
T1 sequence (P31224 whole entry): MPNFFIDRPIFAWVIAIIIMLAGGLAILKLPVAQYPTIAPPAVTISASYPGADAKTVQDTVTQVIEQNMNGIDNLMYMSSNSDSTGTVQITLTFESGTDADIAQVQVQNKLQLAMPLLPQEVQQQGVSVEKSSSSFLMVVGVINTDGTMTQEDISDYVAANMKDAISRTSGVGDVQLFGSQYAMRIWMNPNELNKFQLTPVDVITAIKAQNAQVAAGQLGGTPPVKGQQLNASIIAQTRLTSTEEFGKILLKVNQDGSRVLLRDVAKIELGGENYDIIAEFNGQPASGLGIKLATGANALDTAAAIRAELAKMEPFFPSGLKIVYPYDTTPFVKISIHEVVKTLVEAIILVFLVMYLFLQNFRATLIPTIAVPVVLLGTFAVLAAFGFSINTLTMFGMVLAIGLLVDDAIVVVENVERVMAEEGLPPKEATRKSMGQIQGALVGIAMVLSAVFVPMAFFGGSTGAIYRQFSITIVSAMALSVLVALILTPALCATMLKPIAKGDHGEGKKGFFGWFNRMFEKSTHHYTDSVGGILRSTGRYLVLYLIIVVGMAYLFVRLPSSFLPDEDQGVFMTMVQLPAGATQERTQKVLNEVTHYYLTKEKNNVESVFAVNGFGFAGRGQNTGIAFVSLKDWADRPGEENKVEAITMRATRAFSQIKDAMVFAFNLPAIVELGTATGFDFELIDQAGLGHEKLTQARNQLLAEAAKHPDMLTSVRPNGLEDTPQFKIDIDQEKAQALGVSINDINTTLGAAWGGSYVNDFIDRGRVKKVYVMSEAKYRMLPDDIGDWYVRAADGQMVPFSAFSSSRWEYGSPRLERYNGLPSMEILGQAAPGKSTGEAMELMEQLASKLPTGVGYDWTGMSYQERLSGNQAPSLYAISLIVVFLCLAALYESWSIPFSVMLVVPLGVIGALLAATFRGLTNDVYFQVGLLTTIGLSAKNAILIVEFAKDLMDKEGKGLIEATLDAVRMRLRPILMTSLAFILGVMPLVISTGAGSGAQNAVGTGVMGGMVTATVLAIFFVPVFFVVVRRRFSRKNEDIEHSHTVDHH

MexAB-OprM = target: T2, MexAB-OprM (Pseudomonas aeruginosa, UniProt P52002); assay: fluorescein efflux from E. coli cells loaded with FDG, microfluidic channel fluorescence microscopy; settings: ΔBC/pABM against vector control ΔBC/pV, 100 µg/ml FDG, LB, 15 min, 37°C; exported dye formed in the cell from FDG
T2 construct: gene mexB; full-length tripartite RND efflux pump from plasmid pMMB67HE::mexAB-oprM in E. coli MG1655 ΔacrBΔtolC, IPTG-induced; with Multidrug resistance protein MexA; Outer membrane protein OprM

MexXY-OprM = target: T3, MexXY-OprM (Pseudomonas aeruginosa, UniProt G3XCW2); assay: as above; settings: ΔBC/pXYM against vector control ΔBC/pV, 100 µg/ml FDG, LB, 15 min, 37°C; exported dye formed in the cell from FDG
T3 construct: gene mexY; full-length tripartite RND efflux pump from plasmid pMMB67HE::mexXY-oprM in E. coli MG1655 ΔacrBΔtolC, IPTG-induced; with Multidrug efflux RND transporter periplasmic adaptor subunit MexX; Outer membrane protein OprM
T3 sequence (G3XCW2 entry or part of it): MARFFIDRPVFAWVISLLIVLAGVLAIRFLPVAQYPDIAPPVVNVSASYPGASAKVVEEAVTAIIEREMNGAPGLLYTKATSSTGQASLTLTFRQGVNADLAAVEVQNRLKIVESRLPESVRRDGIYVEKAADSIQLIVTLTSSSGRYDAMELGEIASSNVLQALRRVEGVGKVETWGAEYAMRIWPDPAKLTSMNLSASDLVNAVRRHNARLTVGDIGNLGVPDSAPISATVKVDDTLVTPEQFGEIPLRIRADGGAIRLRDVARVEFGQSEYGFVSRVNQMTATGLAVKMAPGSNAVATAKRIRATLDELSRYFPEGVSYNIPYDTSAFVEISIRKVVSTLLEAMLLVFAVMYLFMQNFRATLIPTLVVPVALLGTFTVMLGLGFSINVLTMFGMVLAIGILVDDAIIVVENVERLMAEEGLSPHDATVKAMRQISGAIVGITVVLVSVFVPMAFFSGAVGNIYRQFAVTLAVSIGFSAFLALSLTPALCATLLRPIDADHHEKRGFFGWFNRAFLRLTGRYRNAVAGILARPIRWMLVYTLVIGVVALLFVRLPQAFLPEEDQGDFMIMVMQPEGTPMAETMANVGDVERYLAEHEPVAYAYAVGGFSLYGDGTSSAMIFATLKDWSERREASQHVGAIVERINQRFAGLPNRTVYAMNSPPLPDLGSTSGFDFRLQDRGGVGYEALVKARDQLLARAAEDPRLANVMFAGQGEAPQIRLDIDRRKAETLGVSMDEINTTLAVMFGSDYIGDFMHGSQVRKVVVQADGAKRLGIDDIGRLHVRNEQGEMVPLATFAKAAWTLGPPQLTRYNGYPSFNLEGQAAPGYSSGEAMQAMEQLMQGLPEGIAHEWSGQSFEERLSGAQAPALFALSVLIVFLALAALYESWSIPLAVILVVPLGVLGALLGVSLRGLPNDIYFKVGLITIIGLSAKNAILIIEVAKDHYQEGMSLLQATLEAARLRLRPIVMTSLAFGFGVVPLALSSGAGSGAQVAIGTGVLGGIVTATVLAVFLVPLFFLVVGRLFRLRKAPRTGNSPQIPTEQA
T3 sequence (G3XD21 entry or part of it, further chain): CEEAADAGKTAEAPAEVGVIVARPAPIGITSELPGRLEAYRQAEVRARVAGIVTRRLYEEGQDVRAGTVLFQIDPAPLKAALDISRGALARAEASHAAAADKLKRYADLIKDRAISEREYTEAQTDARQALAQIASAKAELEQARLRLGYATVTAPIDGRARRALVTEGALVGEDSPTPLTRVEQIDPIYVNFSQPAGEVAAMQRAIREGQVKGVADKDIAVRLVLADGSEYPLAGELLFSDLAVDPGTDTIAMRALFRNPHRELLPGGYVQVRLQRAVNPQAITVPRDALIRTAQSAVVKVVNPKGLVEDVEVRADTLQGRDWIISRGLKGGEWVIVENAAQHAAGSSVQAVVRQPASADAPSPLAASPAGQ
T3 sequence (Q51487 18-485, further chain): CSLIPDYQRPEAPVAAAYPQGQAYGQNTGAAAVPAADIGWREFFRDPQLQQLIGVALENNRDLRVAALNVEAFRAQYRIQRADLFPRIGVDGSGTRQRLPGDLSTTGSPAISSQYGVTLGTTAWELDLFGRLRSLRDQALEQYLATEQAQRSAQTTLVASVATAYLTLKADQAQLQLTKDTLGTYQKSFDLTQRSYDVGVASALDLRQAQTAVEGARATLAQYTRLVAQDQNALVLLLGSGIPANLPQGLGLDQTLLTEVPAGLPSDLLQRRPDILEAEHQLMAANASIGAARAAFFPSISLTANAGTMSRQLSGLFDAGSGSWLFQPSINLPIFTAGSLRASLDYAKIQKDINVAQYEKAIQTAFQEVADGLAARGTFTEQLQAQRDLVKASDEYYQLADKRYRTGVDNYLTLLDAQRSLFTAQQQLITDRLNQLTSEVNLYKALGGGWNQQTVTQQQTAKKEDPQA

Compound | FDG influx and hydrolysis in wild-type against ΔacrB cells, microfluidic channel (AcrAB-TolC) | fluorescein efflux from E. coli cells loaded with FDG, microfluidic channel fluo (MexAB-OprM) | fluorescein efflux from E. coli cells loaded with FDG, microfluidic channel fluo (MexXY-OprM)
O=C1OC2(c3ccc(O[C@@H]4O[C@H](CO)[C@H](O)[C@H](O)[C@H]4O)cc3Oc3cc(O[C@@H]4O[C@H](CO)[C@H](O)[C@H](O)[C@H]4O)ccc32)c2ccccc21 [Fluorescein-di-β-D-galactopyranoside] | AcrAB-TolC and the analogous RND pumps effectively prevented FDG influx in E. coli wild-type cells | – | –
O=C1OC2(c3ccc(O)cc3Oc3cc(O)ccc32)c2ccccc21 [fluorescein] | – | The fluorescent medium was observed in ΔBC carrying pABM or pXYM | The fluorescent medium was observed in ΔBC carrying pABM or pXYM
